# Data as given in publication PMC3744530, “CTA095, a Novel Etk and Src Dual Inhibitor, Induces Apoptosis in Prostate Cancer Cells and Overcomes Resistance to Src Inhibitors” (PLoS ONE, 2013).
# Tests used:
# Format in all cases: cell-based, human
# [1] = system: BCL2 mRNA in PC3-AZD20 cells; assay: Real-time PCR of BCL2 mRNA; settings: PC3-AZD20, 10 μM, RT-PCR
# Procedure: PC3-AZD20 cells were seeded at 10^6 cells/well in 6 well plates overnight. The cells were treated with AZD0530 or CTA095 at 10 μM. Apoptosis was analyzed using Annexin-V FITC apoptosis detection kit. The mRNA levels of Myc and BCL2 were measured using real-time PCR. pEtk, Etk, pSrc, Src, pStat3, Stat3, Myc and BCL2 levels were measured using the corresponding antibodies through a Western blot.
# Figure 12 CTA095 induces apoptosis in Src inhibitor resistant prostate cancer cells through Myc and BCL2 inhibition. PC3-AZD20 (PC3 cell resistant to 20 μM AZD0530) cells were seeded at 10^6 cells/well in 6 well plates overnight. The cells were treated with AZD0530 or CTA095 at 10 μM. Apoptosis was analyzed using Annexin-V FITC apoptosis detection kit (A). The mRNA levels of Myc and BCL2 were measured using real-time PCR (B). pEtk, Etk, pSrc, Src, pStat3, Stat3, Myc and BCL2 levels were measured using the corresponding antibodies through Western blot (C). Columns, mean; bars, standard deviation, n = 3.
# caspase3/7 in PC3 cells = assay: Caspase-3/7 activity (Apo-ONE Homogeneous assay); settings: PC3, 0–10 μM, 24 h
# Procedure: For caspase 3/7 activities, PC3 cells were seeded at 5,000 cells/well in 96-well plate overnight. Then the cells were treated with 0–10 μM CTA095 for 24 h. Caspase-3/7 activities were measured using the Apo-ONE Homogeneous Caspase-3/7 Assay kit (Promega, Madison, WI) according to the manufacturer's instruction. For caspase 9 activity, PC3 cells were seeded in 10 mm tissue culture plate and grew to 50% confluence. Cells were then treated with 0–10 μM CTA095 for 24 h. Cells were harvested and caspase 9 activity was measured using a Western blot with an anti-caspase 9 antibody.
# Figure 7 Induction of apoptosis of PC3 cells following treatment with CTA095. PC3 cells were seeded at 10^6 cells/ml (2 ml) in a 6-well plate overnight and then treated with CTA095 at the indicated concentrations for 24 h. Cell cycle arrest was analyzed using PI staining (A). Apoptosis was analyzed using Annexin-V FITC apoptosis detection kit (B). Caspase 9 activation was measured using western blot (D). For caspase 3/7 activity, PC3 cells were seeded at 5000 cells/well in 96 well plate overnight and treated with CTA095 at 0–10 μM for 24 h. Caspase-3/7 activities were measured using the Apo-ONE Homogeneous Caspase-3/7 Assay kit (Promega, Madison, WI) according to the manufacturer's instruction. Columns, mean; bars, standard deviation, n = 3. […]
# PC3 cells = assay: MTT growth inhibition assay
# Procedure: Cells were seeded in 96-well plates and cultured overnight, followed by treatment with 0.1% DMSO, as the vehicle control, and CTA095, at the indicated concentrations for 72 h. Growth inhibition was measured using a 3-(4,5-Dimethylthiazol-2-yl)-2,5-diphenyltetrazolium bromide (MTT) assay (Roche Diagnostic, Mannheim, Germany).
# Figure 5 Growth Inhibition of CTA095 to LNCAP, CWR22Rv1, PC3 prostate cancer and normal prostate (RWPE1) cells. Cells were seeded at 5,000 cells/well in 96-well plate overnight and treated with CTA095 at the indicated concentrations. The cell viability was measured using MTT assay after 72 h. dots, mean; bars, standard deviation, n = 3.
# Figure 9 CTA095 as a chemo sensitizer. Growth Inhibition of CTA095 and in combination with 10 μM chloroquine (CQ), or 2 ng/ml paclitaxel (PTX) to PC3 human prostate cancer cells. Cells were seeded at 5,000 cells/well in 96-well plate overnight and pretreated with the corresponding co-treatments for 1h, then treated with 2.5 μM CTA095. The cell viability was measured using MTT assay after 72 h. Columns, mean; bars, standard deviation, n = 3.
structure (smiles),measurement,setting,value
"O=c1[nH]c2cc3nc(-c4ccc5oc6ccccc6c5c4)n(CCCN4CCCCC4)c3cc2nc1-c1ccccc1 [CTA095, 2-(dibenzo[b,d]furan-2-yl)-7-phenyl-1-(3-(piperidin-1-yl)propyl)-1H-imidazo[4,5-g]quinoxalin-6(5H)-one]",BCL2 mRNA level,[1],significantly down regulated
same,activation of caspase3/7,caspase3/7 in PC3 cells,dose dependent activation
same,IC50,"PC3 cells; Homo sapiens, PC-3, PC3, MTT, 72 h",4.5 µM
same,growth inhibition in combination with chloroquine (CQ),"PC3 cells; PC3, 2.5 μM CTA095 + CQ 10 μM, MTT, 72 h",synergistic effect
same,growth inhibition in combination with paclitaxel (PTX),"PC3 cells; PC3, 2.5 μM CTA095 + PTX 2 ng/ml, MTT, 72 h",synergistic effect
same,combination with autophagy inducer RPM,"PC3 cells; prostate cancer cells, co-treatment with rapamycin (RPM)",synergizes
